Counter-ions that a name gives are not always drawn.
Tests used:
[1] = biological target: T1, CCR5 (Homo sapiens, UniProt P51681); assay: CCR5-Mediated CCF Assay; type: cell-based; conditions: Hela-R5 cells (gp160) co-cultured 24 hrs with CEM-NKr-CCR5-Luc cells, luciferase readout
T1 construct: host or cells: CEM-NKr-CCR5-Luc
Description: CCF assay was performed as described before (C. Ji, J. Zhang, N. Cammack and S. Sankuratri 2006 J. Biomol. Screen. in press). Hela-R5 cells (express gp160 from R5-tropic virus and HIV-1 T at) were plated in 384 well white culture plates (BD Bioscience, Palo Alto, Calif.) at 7.5×10^3 cells per well in phenol red-free Dulbecco's Modified Eagle Medium (DMEM) supplemented with 10% FBS, 1× Pen-Strep, 300 μg/ml G418, 100 μg/ml hygromycin, and 1 μg/ml doxycycline (Dox) (BD Bioscience, Palo Alto, Calif.), using Multimek (Beckman, Fullerton, Calif.) and incubated at 37° C. overnight to induce the expression of gp160. Ten μl diluted compounds in medium containing 5% DMSO were added to the cells, followed by the addition of CEM-NKr-CCR5-Luc (obtained from NIH AIDS Research & Reference Reagents Program) that expresses CD4 and CCR5 and carries a HIV-2 long terminal repeat (LTR)-driven luciferase reporter gene at 1.5×10^4 cells/15 μl/well and incubated for 24 hrs. At the end of co-culture, 15 μl of Steady-Glo luciferase substrate was added into each well, and the cultures were sealed and gently shaken for 45 min. The luciferase activity were measured for 10 sec per well as luminescence by using 16-channel TopCount NXT (PerkinElmer, Shelton, Conn.) with 10 min dark adaptation and the readout is count per second (CPS). For the drug interaction experiments, small molecule compounds or antibodies were serially diluted in serum-free and phenol red-free RPMI containing 5% dimethyl sulfoxide (DMSO) (CalBiochem, La Jolla, Calif.) and 1× Pen-Strep. Five μl each of the two diluted compound or mAb to be tested for drug-drug interactions were added to the Hela-R5 cells right before the addition of target cells.

T1 sequence (P51681 whole entry): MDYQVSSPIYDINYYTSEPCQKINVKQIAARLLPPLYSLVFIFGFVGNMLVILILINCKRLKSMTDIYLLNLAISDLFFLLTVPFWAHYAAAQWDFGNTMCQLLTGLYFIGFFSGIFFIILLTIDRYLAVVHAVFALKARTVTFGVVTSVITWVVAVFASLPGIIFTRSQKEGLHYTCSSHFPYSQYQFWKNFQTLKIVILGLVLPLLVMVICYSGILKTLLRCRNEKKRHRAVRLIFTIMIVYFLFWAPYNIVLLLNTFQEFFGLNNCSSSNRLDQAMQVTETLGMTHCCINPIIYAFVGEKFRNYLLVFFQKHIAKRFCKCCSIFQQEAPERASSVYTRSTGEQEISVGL

IC50 [1] | melting point | SMILES
0.5 nM |  | Cc1nc(OCC(=O)OCc2ccccc2)nc(C)c1C(=O)N1CC2CN(CC[C@H](NC(=O)C3CCCC3)c3ccccc3)CC2C1 (stereo partly drawn) [Compound I-3, (5-{5-[(S)-3-(Cyclopentanecarbonyl-amino)-3-phenyl-propyl]-hexahydro-pyrrolo[3,4-c]pyrrole-2-carbonyl}-4,6-dimethyl-pyrimidin-2-yloxy)-acetic Acid Benzyl Ester]
< 0.3 nM |  | Cc1nc(Oc2ccc(C(=O)OCc3ccccc3)cc2)nc(C)c1C(=O)N1CC2CN(CC[C@H](NC(=O)C3CCCC3)c3ccccc3)CC2C1 (stereo partly drawn) [Compound I-7, 4-(5-{5-[(S)-3-(Cyclopentanecarbonyl-amino)-3-phenyl-propyl]-hexahydro-pyrrolo[3,4-c]pyrrole-2-carbonyl}-4,6-dimethyl-pyrimidin-2-yloxy)-benzoic acid benzyl ester]
0.9 nM |  | Cc1nc(Oc2ccc(C(=O)O)cc2)nc(C)c1C(=O)N1CC2CN(CC[C@H](NC(=O)C3CCCC3)c3ccccc3)CC2C1 (stereo partly drawn) [Compound I-8, 4-(5-{5-[(S)-3-(cyclopentanecarbonyl-amino)-3-phenyl-propyl]-hexahydro-pyrrolo[3,4-c]pyrrole-2-carbonyl}-4,6-dimethyl-pyrimidin-2-yloxy)-benzoic acid trifluoro-acetate salt]
< 0.3 nM |  | CCOC(=O)c1cccc(Oc2nc(C)c(C(=O)N3CC4CN(CC[C@H](NC(=O)C5CCCC5)c5ccccc5)CC4C3)c(C)n2)c1 (stereo partly drawn) [Compound I-9, 3-(5-{5-[(S)-3-(Cyclopentanecarbonyl-amino)-3-phenyl-propyl]-hexahydro-pyrrolo[3,4-c]pyrrole-2-carbonyl}-4,6-dimethyl-pyrimidin-2-yloxy)-benzoic acid ethyl ester]
1 nM |  | COC(=O)[C@@H](Oc1nc(C)c(C(=O)N2CC3CN(CC[C@H](NC(=O)C4CCCC4)c4ccccc4)CC3C2)c(C)n1)c1ccccc1 (stereo partly drawn) [Compound I-16, (S)-(5-{-5-[(S)-3-(Cyclopentanecarbonyl-amino)-3-phenyl-propyl]-hexahydro-pyrrolo[3,4-c]pyrrole-2-carbonyl}-4,6-dimethyl-pyrimidin-2-yloxy)-phenyl-acetic acid methyl ester]
0.4 nM |  | COc1nc(C)c(C(=O)N2CC3CN(CC[C@H](NC(=O)C4CCCC4)c4ccccc4)CC3C2)c(C)n1 (stereo partly drawn) [Compound I-19, Cyclopentanecarboxylic Acid {(S)-3-[5-(2-methoxy-4,6-dimethyl-pyrimidine-5-carbonyl)-hexahydro-pyrrolo[3,4-c]pyrrol-2-yl]-1-phenyl-propyl}-amide]
< 0.3 nM |  | Cc1nc(NS(C)(=O)=O)nc(C)c1C(=O)N1CC2CN(CC[C@H](NC(=O)C3CCCC3)c3ccccc3)CC2C1 (stereo partly drawn) [Compound I-42, Cyclopentanecarboxylic Acid {(S)-3-[5-(2-methanesulfonylamino-4,6-dimethyl-pyrimidine-5-carbonyl)-hexahydro-pyrrolo[3,4-c]pyrrol-2-yl]-1-phenyl-propyl}-amide]
< 0.3 nM |  | Cc1nn(-c2ccc(C(F)(F)F)cn2)c(C)c1C(=O)N1CC2CN(CC[C@H](NC(=O)C3CCOC3)c3cccc(F)c3)CC2C1 (stereo partly drawn) [II-3, Tetrahydro-furan-3-carboxylic acid [(S)-3-{5-[3,5-dimethyl-1-(5-trifluoromethyl-pyridin-2-yl)-1H-pyrazole-4-carbonyl]-hexahydro-pyrrolo[3,4-c]pyrrol-2-yl}-1-(3-fluoro-phenyl)-propyl]-amide]
 | 88.2 to 89.1 °C | CCOC(=O)Cn1c(C)c(C(=O)N2CC3CN(CCCN(C(=O)C4CCN(C(C)=O)CC4)c4ccc(C)c(Cl)c4)CC3C2)c(C)cc1=O (stereo not drawn) [III-1, [5-(5-{3-[(1-Acetyl-piperidine-4-carbonyl)-(3-chloro-4-methyl-phenyl)-amino]-propyl}-hexahydro-pyrrolo[3,4-c]pyrrole-2-carbonyl)-4,6-dimethyl-2-oxo-2H-pyridin-1-yl]-acetic acid ethyl ester]
1.4 nM |  | Cc1cc(=O)n(C)c(C)c1C(=O)N1CC2CN(CC[C@H](NC(=O)C3CCCC3)c3ccccc3)CC2C1 (stereo partly drawn) [III-13, Cyclopentanecarboxylic acid {(S)-1-phenyl-3-[-5-(1,2,4-trimethyl-6-oxo-1,6-dihydro-pyridine-3-carbonyl)-hexahydro-pyrrolo[3,4-c]pyrrol-2-yl]-propyl}-amide]
1.1 nM |  | Cc1cc(=O)n(C)c(C)c1C(=O)N1CC2CN(CC[C@H](NC(=O)C3CCC(F)(F)CC3)c3ccccc3)CC2C1 (stereo partly drawn) [III-15, 4,4-difluoro-cyclohexanecarboxylic acid {(S)-1-phenyl-3-[5-(1,2,4-trimethyl-6-oxo-1,6-dihydro-pyridine-3-carbonyl)-hexahydro-pyrrolo[3,4-c]pyrrol-2-yl]-propyl}-amide]

SMILES | IC50 [1] | melting point
Cc1nc(Oc2cccc(C(=O)O)c2)nc(C)c1C(=O)N1CC2CN(CC[C@H](NC(=O)C3CCCC3)c3ccccc3)CC2C1 (stereo partly drawn) [Compound I-10, 3-(5-{5-[(S)-3-(cyclopentanecarbonyl-amino)-3-phenyl-propyl]-hexahydro-pyrrolo[3,4-c]pyrrole-2-carbonyl}-4,6-dimethyl-pyrimidin-2-yloxy)-benzoic acid, trifluoro acetic acid salt] | 1.1 nM | 

From patent US20070191335A1, “Heterocylic antiviral compounds” (priority 2006, published 2007)
